Key:
[1] = target: Macrophage colony-stimulating factor 1 receptor (Homo sapiens, UniProt P07333); assay: Inhibition of human recombinant CSF1R using ATP/Ulight-TK peptide at 5 nM incubated for 15 mins relative to control
[2] = target: Tyrosine-protein kinase Fyn (Homo sapiens, UniProt P06241); assay: Inhibition of human recombinant Fyn (218 to end) at 50 nM incubated for 15 mins relative to control
[3] = target: Tyrosine-protein kinase Fgr (Homo sapiens, UniProt P09769); assay: Inhibition of human recombinant FGR (456 to 770) at 500 nM by radiometric scintillation counting analysis relative to control
[4] = target: Tyrosine-protein kinase JAK1 (Homo sapiens) (UniProt P23458); assay: Inhibition of human recombinant JAK1 at 50 nM radiometric scintillation counting analysis relative to control
[5] = target: T1, Tyrosine-protein kinase TXK (Homo sapiens) (UniProt P42681); assay: Inhibition of human recombinant Txk (256 to end) at 500 nM by radiometric scintillation counting analysis relative to control
T1 sequence (whole entry): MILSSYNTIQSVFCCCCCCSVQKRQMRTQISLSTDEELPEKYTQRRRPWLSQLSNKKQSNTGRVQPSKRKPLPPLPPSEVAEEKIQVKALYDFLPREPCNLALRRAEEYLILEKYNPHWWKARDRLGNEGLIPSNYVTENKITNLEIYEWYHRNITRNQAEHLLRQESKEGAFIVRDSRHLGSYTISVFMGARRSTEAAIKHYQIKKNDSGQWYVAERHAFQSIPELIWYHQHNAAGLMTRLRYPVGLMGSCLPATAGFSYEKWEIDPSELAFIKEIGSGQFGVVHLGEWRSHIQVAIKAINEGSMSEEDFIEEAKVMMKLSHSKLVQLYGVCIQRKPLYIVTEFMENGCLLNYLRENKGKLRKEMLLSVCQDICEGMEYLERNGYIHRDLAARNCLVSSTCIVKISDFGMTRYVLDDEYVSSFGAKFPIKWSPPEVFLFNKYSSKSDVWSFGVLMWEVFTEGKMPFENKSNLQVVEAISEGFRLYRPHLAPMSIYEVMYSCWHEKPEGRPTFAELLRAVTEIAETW

[6] = target: T2, Tyrosine-protein kinase HCK (Homo sapiens, UniProt P08631); assay: Inhibition of human recombinant HCK (230 to 497) at 50 nM by radiometric scintillation counting analysis relative to control
[7] = target: Tyrosine-protein kinase Lck (Homo sapiens, UniProt P06239); assay: Inhibition of human full length recombinant LCK at 500 nM by radiometric scintillation counting analysis relative to control
[8] = target: Proto-oncogene tyrosine-protein kinase Src (Homo sapiens, UniProt P12931); assay: Inhibition of human recombinant Src (1-530) at 500 nM by radiometric scintillation counting analysis relative to control
[9] = target: T2, Tyrosine-protein kinase HCK; assay: Inhibition of human recombinant HCK (230 to 497) at 5 nM by radiometric scintillation counting analysis relative to control
[10] = target: Tyrosine-protein kinase JAK1 (Homo sapiens) (UniProt P23458); assay: Inhibition of human recombinant JAK1 at 500 nM radiometric scintillation counting analysis relative to control
[11] = target: T3, Tyrosine-protein kinase ZAP-70 (Homo sapiens) (UniProt P43403); assay: Inhibition of human full length recombinant ZAP70 at 500 nM by radiometric scintillation counting analysis relative to control
T3 sequence (whole entry): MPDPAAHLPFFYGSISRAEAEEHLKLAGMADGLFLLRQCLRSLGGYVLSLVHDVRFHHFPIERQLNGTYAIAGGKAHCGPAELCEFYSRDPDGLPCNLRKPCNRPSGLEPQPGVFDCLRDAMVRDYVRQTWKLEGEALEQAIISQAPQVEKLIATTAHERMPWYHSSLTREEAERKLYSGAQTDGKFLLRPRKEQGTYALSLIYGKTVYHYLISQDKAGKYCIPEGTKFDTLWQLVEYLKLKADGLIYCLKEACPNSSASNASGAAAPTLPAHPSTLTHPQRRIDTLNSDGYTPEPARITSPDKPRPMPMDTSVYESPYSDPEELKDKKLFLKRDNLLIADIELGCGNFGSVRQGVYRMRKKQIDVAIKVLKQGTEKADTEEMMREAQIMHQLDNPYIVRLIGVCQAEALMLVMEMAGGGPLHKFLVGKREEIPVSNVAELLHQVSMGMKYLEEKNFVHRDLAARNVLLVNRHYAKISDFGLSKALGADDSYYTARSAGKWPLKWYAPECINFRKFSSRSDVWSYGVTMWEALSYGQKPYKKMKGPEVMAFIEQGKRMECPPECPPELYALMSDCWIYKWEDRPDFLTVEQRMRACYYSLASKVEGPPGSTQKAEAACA

[12] = target: Mast/stem cell growth factor receptor Kit (Homo sapiens) (UniProt P10721); assay: Inhibition of human recombinant c-Kit at 500 nM by radiometric scintillation counting analysis relative to control
[13] = target: Platelet-derived growth factor receptor alpha (Homo sapiens) (UniProt P16234); assay: Inhibition of human recombinant PDGFRalpha (550 to end) at 500 nM by radiometric scintillation counting analysis relative to control
[14] = target: T4, Cytoplasmic tyrosine-protein kinase BMX (Homo sapiens) (UniProt P51813); assay: Inhibition of human full length recombinant Bmx at 500 nM by radiometric scintillation counting analysis relative to control
T4 sequence (whole entry): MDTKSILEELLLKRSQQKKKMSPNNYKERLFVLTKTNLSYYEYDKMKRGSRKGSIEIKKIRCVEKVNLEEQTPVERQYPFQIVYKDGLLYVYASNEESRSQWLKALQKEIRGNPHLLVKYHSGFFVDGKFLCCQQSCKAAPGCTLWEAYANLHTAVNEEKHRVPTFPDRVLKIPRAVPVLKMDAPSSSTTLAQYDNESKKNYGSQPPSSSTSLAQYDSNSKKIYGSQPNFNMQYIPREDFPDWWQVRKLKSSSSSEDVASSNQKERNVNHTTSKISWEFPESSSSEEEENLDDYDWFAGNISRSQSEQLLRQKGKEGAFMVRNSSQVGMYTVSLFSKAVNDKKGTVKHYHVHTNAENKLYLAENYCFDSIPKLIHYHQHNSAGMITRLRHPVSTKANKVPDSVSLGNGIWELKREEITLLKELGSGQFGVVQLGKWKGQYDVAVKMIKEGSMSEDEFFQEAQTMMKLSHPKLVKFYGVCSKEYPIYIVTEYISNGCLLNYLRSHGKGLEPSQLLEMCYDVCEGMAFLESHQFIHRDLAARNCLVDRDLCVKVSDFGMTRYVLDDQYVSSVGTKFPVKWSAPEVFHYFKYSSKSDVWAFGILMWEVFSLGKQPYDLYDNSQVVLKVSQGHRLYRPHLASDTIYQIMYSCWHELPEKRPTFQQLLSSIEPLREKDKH

[15] = target: Tyrosine-protein kinase ABL1 (Homo sapiens, UniProt P00519); assay: Inhibition of human recombinant ABL1 using ATP/Ulight-TK peptide at 500 nM incubated for 15 mins relative to control
[16] = target: Tyrosine-protein kinase Blk (Homo sapiens, UniProt P51451); assay: Inhibition of human full length recombinant BLK at 500 nM by radiometric scintillation counting analysis relative to control
Chain of Tyrosine-protein kinase Blk (P51451 2-505 limits assumed): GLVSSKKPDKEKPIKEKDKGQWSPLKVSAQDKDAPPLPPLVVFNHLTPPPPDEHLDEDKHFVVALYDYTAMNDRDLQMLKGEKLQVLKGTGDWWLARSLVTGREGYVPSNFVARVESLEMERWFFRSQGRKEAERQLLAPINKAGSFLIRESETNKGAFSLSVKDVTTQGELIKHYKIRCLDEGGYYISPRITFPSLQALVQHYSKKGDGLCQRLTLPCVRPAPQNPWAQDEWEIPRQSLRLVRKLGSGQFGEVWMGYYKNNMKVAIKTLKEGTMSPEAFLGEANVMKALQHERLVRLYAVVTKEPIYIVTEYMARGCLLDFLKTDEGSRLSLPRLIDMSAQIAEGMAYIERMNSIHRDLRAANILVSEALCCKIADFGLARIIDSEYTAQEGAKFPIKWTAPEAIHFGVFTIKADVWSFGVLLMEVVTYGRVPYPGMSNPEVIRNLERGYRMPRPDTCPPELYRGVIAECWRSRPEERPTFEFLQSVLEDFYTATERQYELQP

Chain of Proto-oncogene tyrosine-protein kinase Src (P12931 2-536 limits assumed): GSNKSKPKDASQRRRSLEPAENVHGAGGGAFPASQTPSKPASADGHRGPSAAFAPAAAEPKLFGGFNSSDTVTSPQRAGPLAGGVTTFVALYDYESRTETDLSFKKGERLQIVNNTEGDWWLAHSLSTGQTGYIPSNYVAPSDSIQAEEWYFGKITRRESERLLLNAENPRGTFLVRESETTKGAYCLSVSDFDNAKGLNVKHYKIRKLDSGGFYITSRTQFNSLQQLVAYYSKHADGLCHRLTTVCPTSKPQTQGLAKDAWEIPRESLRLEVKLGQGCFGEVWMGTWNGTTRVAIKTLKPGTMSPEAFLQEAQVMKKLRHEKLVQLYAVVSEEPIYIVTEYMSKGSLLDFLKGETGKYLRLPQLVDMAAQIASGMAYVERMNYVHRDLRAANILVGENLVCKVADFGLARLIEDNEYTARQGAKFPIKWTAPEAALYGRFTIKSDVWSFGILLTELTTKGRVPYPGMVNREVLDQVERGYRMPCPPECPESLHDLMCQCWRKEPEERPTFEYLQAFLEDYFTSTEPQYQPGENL
Chain of Macrophage colony-stimulating factor 1 receptor (P07333 whole entry): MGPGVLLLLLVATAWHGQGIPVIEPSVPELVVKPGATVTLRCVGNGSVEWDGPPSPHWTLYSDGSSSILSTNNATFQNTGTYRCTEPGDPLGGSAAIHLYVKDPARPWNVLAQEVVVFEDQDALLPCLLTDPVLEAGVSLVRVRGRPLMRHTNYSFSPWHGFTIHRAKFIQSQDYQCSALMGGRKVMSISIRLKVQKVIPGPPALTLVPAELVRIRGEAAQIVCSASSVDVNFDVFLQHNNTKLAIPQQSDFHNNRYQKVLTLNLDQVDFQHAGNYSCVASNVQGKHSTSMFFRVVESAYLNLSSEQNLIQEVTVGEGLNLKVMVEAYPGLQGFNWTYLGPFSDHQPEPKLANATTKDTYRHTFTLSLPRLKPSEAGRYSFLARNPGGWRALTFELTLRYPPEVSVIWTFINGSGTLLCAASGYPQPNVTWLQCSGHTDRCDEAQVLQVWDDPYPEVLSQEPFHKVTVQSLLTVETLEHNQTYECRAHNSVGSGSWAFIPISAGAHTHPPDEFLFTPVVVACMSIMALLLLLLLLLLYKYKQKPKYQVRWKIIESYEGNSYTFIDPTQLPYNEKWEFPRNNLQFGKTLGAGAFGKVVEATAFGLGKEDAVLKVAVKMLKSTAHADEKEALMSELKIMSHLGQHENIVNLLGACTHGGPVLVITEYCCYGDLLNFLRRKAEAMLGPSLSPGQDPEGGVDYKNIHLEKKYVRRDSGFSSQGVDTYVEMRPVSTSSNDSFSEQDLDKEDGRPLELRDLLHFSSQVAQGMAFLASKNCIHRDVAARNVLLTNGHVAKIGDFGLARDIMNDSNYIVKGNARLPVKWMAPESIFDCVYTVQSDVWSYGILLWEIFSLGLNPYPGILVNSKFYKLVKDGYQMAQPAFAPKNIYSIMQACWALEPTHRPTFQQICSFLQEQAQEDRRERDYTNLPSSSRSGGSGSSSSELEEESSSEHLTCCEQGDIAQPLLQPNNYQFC
T2 sequence (P08631 2-526 limits assumed): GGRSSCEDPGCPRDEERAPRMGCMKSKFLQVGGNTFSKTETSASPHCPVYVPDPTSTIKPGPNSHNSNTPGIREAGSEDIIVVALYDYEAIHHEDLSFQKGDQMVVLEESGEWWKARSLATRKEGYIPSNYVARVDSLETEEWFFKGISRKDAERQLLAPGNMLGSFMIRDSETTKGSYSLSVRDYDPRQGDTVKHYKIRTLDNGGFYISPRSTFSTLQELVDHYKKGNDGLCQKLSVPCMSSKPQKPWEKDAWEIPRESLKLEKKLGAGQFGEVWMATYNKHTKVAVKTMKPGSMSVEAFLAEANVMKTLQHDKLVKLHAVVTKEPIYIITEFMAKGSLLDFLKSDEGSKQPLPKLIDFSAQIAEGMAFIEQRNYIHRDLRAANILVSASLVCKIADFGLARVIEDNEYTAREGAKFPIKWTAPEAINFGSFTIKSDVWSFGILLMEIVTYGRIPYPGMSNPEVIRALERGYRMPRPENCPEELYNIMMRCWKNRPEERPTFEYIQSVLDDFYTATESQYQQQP
Chain of Mast/stem cell growth factor receptor Kit (Homo sapiens) (P10721 whole entry): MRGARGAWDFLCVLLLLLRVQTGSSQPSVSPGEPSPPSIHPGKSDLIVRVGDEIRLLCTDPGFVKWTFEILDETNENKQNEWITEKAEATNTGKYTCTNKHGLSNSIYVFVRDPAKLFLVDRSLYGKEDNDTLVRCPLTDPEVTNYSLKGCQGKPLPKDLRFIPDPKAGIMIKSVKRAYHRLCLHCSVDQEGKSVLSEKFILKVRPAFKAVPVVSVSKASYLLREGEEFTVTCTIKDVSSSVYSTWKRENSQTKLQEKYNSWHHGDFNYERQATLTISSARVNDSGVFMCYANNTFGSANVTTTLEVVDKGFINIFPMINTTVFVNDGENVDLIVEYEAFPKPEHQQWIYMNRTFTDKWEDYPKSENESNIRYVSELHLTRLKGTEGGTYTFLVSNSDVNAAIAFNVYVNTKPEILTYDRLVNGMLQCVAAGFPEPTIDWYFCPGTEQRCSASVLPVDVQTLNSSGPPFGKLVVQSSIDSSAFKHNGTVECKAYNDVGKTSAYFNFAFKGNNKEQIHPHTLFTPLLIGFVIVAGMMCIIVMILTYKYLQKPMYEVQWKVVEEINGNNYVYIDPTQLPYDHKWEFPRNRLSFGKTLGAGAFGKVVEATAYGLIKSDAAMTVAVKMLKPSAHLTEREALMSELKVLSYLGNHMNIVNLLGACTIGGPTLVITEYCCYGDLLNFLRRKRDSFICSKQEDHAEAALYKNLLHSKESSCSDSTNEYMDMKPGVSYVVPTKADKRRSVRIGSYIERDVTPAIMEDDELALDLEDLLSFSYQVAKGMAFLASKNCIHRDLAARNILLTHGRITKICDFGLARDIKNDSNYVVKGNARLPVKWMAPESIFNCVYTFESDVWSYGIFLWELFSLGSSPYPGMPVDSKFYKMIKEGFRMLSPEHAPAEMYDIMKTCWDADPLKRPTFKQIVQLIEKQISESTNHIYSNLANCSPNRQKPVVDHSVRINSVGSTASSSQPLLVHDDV
Chain of Tyrosine-protein kinase ABL1 (P00519 whole entry): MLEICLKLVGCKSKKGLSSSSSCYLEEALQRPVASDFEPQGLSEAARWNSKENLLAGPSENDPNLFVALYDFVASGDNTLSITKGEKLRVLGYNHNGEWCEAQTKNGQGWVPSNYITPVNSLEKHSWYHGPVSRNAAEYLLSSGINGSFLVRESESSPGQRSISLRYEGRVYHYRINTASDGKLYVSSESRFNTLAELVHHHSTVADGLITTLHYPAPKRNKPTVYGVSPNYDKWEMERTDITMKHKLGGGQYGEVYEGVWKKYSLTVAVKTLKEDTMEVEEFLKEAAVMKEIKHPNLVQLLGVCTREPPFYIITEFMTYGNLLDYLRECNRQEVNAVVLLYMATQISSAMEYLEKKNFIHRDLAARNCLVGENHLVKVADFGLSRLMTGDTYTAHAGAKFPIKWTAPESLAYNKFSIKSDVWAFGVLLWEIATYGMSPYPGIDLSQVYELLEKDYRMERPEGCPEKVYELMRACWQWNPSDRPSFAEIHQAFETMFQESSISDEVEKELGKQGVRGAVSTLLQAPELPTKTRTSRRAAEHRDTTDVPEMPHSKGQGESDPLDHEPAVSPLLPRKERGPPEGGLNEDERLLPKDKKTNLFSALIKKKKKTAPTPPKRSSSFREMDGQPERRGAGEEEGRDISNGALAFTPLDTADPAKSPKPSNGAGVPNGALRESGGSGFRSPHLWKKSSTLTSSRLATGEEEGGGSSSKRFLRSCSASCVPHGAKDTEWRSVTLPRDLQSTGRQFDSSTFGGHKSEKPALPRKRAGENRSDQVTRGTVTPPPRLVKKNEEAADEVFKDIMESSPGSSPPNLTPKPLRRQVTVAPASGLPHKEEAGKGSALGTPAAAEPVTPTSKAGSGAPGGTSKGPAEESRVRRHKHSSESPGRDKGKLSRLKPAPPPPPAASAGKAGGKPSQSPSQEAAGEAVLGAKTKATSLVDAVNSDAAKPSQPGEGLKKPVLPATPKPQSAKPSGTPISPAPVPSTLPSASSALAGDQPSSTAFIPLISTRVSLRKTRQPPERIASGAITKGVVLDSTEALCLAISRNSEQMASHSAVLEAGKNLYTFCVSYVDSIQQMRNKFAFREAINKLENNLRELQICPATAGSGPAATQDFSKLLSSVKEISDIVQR

| inhibition [1] [%] | inhibition [2] [%] | inhibition [3] [%] | inhibition [4] [%] | inhibition [5] [%] | inhibition [6] [%] | inhibition [7] [%] | inhibition [8] [%] | inhibition [9] [%] | inhibition [10] [%] | inhibition [11] [%] | inhibition [12] [%] | inhibition [13] [%] | inhibition [14] [%] | inhibition [15] [%] | inhibition [16] [%] | Structure (SMILES) |
| --- | --- | --- | --- | --- | --- | --- | --- | --- | --- | --- | --- | --- | --- | --- | --- | --- |
| 34 | 43 | 46 | -6 | -1 | 64 | 92 | 79 | 1 | -8 | 20 | 56 | 94 | 23 | 89 | 50 | Cc1ccc(C(=O)Nc2ccc(Cl)cc2Cl)cc1C#Cc1cc(-c2cnn(C)c2)cnc1N |
| 39 | 81 | 77 | 8 | 42 | 92 | 98 | 96 | 68 | -2 | -4 | 65 | 82 | 20 | 102 | 99 | Cc1ccc(C(=O)Nc2ccc(OC(F)(F)F)cc2)cc1C#Cc1cc(-c2cnn(C)c2)cnc1N |

| Structure (SMILES) | inhibition [1] [%] | inhibition [2] [%] | inhibition [3] [%] | inhibition [4] [%] | inhibition [5] [%] | inhibition [6] [%] | inhibition [7] [%] | inhibition [8] [%] | inhibition [9] [%] | inhibition [10] [%] | inhibition [11] [%] | inhibition [12] [%] | inhibition [13] [%] | inhibition [14] [%] | inhibition [15] [%] | inhibition [16] [%] |
| --- | --- | --- | --- | --- | --- | --- | --- | --- | --- | --- | --- | --- | --- | --- | --- | --- |
| Cc1ccc(C(=O)Nc2cc(C(F)(F)F)cc(C(F)(F)F)c2)cc1C#Cc1cc(-c2cnn(C)c2)cnc1N | 25 | 55 | 101 | 37 | 86 | 92 | 77 | 92 | 11 | 0 | -1 | 17 | 18 | 89 | 104 | 98 |

Reference: ChEMBL document CHEMBL4837249, “Discovery of Potent Antiallergic Agents Based on an o-Aminopyridinyl Alkynyl Scaffold” (J Med Chem, 2021)
